From article PMC2964311, “The Human Host Defense Peptide LL-37 Interacts with Neisseria meningitidis Capsular Polysaccharides and Inhibits Inflammatory Mediators Release” (PLoS ONE, 2010)
Converted amounts (≈) assume the structure as drawn.

Legend:
[1] = system: RAW 264.7 macrophages; test: Nitric oxide release from RAW 264.7 macrophages induced with meningococcal CPS (Griess method); format: cell-based, murine
Description: (§1) Human THP-1 (macrophage-like cells) and murine RAW 264.7 (TLR4-sufficient), 23ScCr (TLR4-deficient) and HEK-TLR2/6/CD14 stably transfected cell lines were stimulated with meningococcal CPS polymers with or without pre-incubation with LL-37 and its analogs (Table 1). CPS polymers were purified from the LPS-deficient serogroup B Neisseria meningitidis lpxA mutant as well as other meningococcal serogroups A, B, C, W135 and Y. Purified CPS samples were freshly dissolved in pyrogen-free sterile H2O at 1 mg/ml stock concentration and vortexed for 2 min. Working CPS concentrations (ranging from 100 µg/ml to 50 ng/ml) were made in duplicate wells using sterile PBS by serial fold dilutions in the 96-well tissue culture plates (Becton Dickinson, Franklin Lakes, NJ) at 50 µl final volumes. Cationic peptides (2, 4 or 8 µg/ml) or PBS equivalent volumes were added to designated wells and pre-incubated for 30 min at 37°C. Freshly grown THP-1 cells and HEK-TLR2/6 transfected cells as well as murine macrophages, each adjusted to 10^6 cell/ml and 250 µl aliquots were dispensed into each well at final 250×10^3 cell density in the designated 96-well plates. The plates were incubated overnight at 37°C with 5% CO2 and humidity. Supernatants from stimulated cells were harvested and stored at −20°C until use.
Freshly grown adherent RAW 246.7 or 23ScCr (TLR4-deficient) macrophages were harvested, washed and re-suspended in Dulbecco's complete media, counted and adjusted to 10^6 cell/ml. 250 µl aliquots were then dispensed into each well of a 96-well plate at final 250×10^3 cell density prior to stimulation with purified CPS polymers with or without cationic peptides. The induced RAW 264.7 or 23ScCr macrophages were incubated overnight at 37°C with 5% CO2 and supernatants were harvested and saved. Nitric oxide release was quantified using the Greiss chemical method as previously described.

[2] = system: TLR4-sufficient and TLR4-deficient murine macrophages; test: CXCL10 (IP-10) release from murine macrophages induced with meningococcal CPS; format: cell-based
Description: as §1, with “The plates were incubated overnight at 37°C with 5% CO2 and humidity. Supernatants from stimulated cells were harvested and stored at −20°C until use.” left out
(§2) The cytokines TNFα, IL-6 and CXCL10 (IP-10), released from THP-1 cells, and IL-8, released from HEK-TLR2 transfected cells stimulated with meningococcal CPS polymers, were quantified by DuoSet ELISA (R&D Systems) as previously described.

[3] = system: THP-1 cells; test: TNFα release from THP-1 cells induced with meningococcal CPS pre-incubated with peptide (ELISA); format: cell-based, human; conditions: THP-1 cells induced overnight with serogroup B CPS-lpxA pre-incubated with 2 µg/ml peptide, 30 min, 37°C; Figure 1A
Description: as §1, with “Cationic peptides (2, 4 or 8 µg/ml) or PBS equivalent volumes were added to designated wells and pre-incubated for 30 min at 37°C.” left out
as §2

[4] = system: meningococcal CPS-lpxA polymers; test: Electrophoretic mobility shift assay (EMSA) of CPS complex with LL-37, CD14 and LBP; format: binding, Neisseria meningitidis; conditions: 5 µg LL-37, 0.5 µg rCD14, 0.5 µg rLBP, 3 h 37°C; 8% native PAGE, Western blot; Figure 8 lane 5
Description: To assess binding of CPS to LL-37 in the presence of human CD14 and LBP, an EMSA assay using native gel conditions was performed. Serogroup B CPS purified from a LOS-deficient meningococcal lpxA strain were dissolved in sterile H2O at 1 mg/ml concentration and 20 µl were transferred into an Eppendorf tube mixed with 10 µl (5 µg) of LL-37, 10 µl (0.5 µg) of human rCD14 and 10 µl (0.5 µg) of rLBP (R&D Systems) in […] and incubated for 3 h at 37°C. An aliquot of 7.5 µl of the mixed complexes were transferred into a new Eppendorf tube and mixed with an equal volume of sample buffer (0.1 M Tris-glycine buffer containing 20% glycerol and bromophenol blue) and 15 µl of the mixture were loaded on 8% native polyacrylamide gel electrophoresis (PAGE) without SDS as previously described. Electrophoresis was performed with Tris-glycine buffer pH 8.8 without SDS and run for 2 h at 4°C. The gel-shifting of CPS complexes was detected by Western blot method using biotinylated anti CD14 and anti LBP antibodies (R&D Systems) diluted 1∶1500× with blocking buffer.

[5] = system: HEK-TLR2/6 stably transfected cells; test: IL-8 release from HEK-TLR2/6 stably transfected cells induced with meningococcal CPS pre-incubated with peptide (ELISA); format: cell-based, human
Description: as §1, §2

[6] = system: TLR2; test: Neutralization of the TLR2-mediated response induced by phospholipid extract PL-lpxA; format: cell-based; conditions: phospholipid extraction from LOS-deficient meningococci
[7] = system: THP-1 cells; test: IL-6 release from THP-1 cells induced with meningococcal CPS pre-incubated with peptide (ELISA); format: cell-based, human; conditions: THP-1 cells induced overnight with CPS-lpxA pre-incubated with 2 µg/ml peptide, 30 min, 37°C; Figure 1B
Description: as §1, with “Cationic peptides (2, 4 or 8 µg/ml) or PBS equivalent volumes were added to designated wells and pre-incubated for 30 min at 37°C.” left out, “Supernatants from stimulated cells were harvested and stored at −20°C until use.” left out
as §2

[8] = system: N. gonorrhoeae strain FA 19; conditions: N. gonorrhoeae FA19 (non-encapsulated); assays in triplicate
Description: The peptides were dissolved in 0.01 % (v/v) acetic acid and stored at −20°C prior to use. Antibacterial assays were performed as described previously and used N. gonorrhoeae strain FA 19. All assays were performed in triplicate and values are reported as the minimal inhibitory concentration (MIC).

With `CC[C@H](C)[C@H](NC(=O)[C@H](CCCCN)NC(=O)[C@H](CCC(=O)O)NC(=O)[C@H](CCCCN)NC(=O)[C@H](CO)NC(=O)[C@H](CCCCN)NC(=O)[C@H](CCCNC(=N)N)NC(=O)[C@H](Cc1ccccc1)NC(=O)[C@H](Cc1ccccc1)NC(=O)[C@H](CC(=O)O)NC(=O)CNC(=O)[C@H](CC(C)C)NC(=O)[C@@H](N)CC(C)C)C(=O)NCC(=O)N[C@@H](CCCCN)C(=O)N[C@@H](CCC(=O)O)C(=O)N[C@@H](Cc1ccccc1)C(=O)N[C@@H](CCCCN)C(=O)N[C@@H](CCCNC(=N)N)C(=O)N[C@H](C(=O)N[C@H](C(=O)N[C@@H](CCC(N)=O)C(=O)N[C@@H](CCCNC(=N)N)C(=O)N[C@H](C(=O)N[C@@H](CCCCN)C(=O)N[C@@H](CC(=O)O)C(=O)N[C@@H](Cc1ccccc1)C(=O)N[C@@H](CC(C)C)C(=O)N[C@@H](CCCNC(=N)N)C(=O)N[C@@H](CC(N)=O)C(=O)N[C@@H](CC(C)C)C(=O)N[C@H](C(=O)N1CCC[C@H]1C(=O)N[C@@H](CCCNC(=N)N)C(=O)N[C@H](C(=O)N[C@@H](CCC(=O)O)C(=O)N[C@@H](CO)C(=O)O)[C@@H](C)O)C(C)C)[C@@H](C)CC)C(C)C)[C@@H](C)CC` [LL-37] the “Nitric oxide release by CPS-lpxA complexes used in gel-shift” value ([1]; RAW 264 macrophages, complexes with CD14, LBP and LL-37, data not shown) was “significant reduction in nitric oxide release”, the “Cytokine release after pre-treatment of macrophages” value ([1]; RAW 264 pre-treated with 10 µg/ml LL-37 for 30 min, washed, then CPS-lpxA 50 µg/ml, nitric oxide read-out, Figure S2) was “did not affect cytokine release” and the Nitric oxide release ([1]; RAW 264.7 induced with CPS-lpxA pre-incubated with 2 µg/ml peptide, nitrite after 24 h, Figure 1D) was “inhibited”. The “CXCL10 (IP-10) release” value [2] was “inhibited”, the TNFα release [3] was “inhibited” and the “Gel-shift of CPS-lpxA-CD14-LBP complexes” value [4] was “caused a gel-shift”. For the same compound, the IL-8 release ([5]; HEK-TLR2/6 cells induced with CPS-lpxA pre-incubated with 2 µg/ml peptide, Figure 1C) was “inhibited”, the “Neutralization of CPS-induced IL-8 release” value ([5]; HEK-TLR2/6 cells, serogroup A CPS pre-incubated with 4 µg/ml peptide, Figure 2A) was “neutralized” and the IL-8 release ([5]; HEK/TLR2/6 cells stimulated with different meningococcal CPS structures pre-incubated with LL-37) was “significant reduction in IL-8 release”. For the same compound, the “IL-8 release induced by MAPS” value ([5]; HEK/TLR2/6 cells, vaccine grade serogroup A CPS (MAPS) pre-incubated with 2 µg/ml of LL-37, Figure 2B) was “significantly reduced”, the “Neutralization of biologic activity of PL-lpxA” value [6] was “failed to neutralize” and the IL-6 release [7] was “inhibited”. For the same compound, the MIC [8] was 7.8 µg/mL (≈ 1.74 µM).
